# Measured values taken from patent publication US7229803B2, “Reaction of (di)amines in the presence of a lysine oxidase and of a reducing agent” (BASF Aktiengesellschaft, priority 2001, dated 2007).
# Molecular target: T1, lysine oxidase from Pichia pastoris (Komagataella pastoris, UniProt Q96X16)
# T1 construct: Purification of the Lysine Oxidase from Pichia pastoris; endogenous in cells; host or cells: Pichia pastoris (enzyme purified from the yeast itself)
# T1 sequence (Q96X16 19-787): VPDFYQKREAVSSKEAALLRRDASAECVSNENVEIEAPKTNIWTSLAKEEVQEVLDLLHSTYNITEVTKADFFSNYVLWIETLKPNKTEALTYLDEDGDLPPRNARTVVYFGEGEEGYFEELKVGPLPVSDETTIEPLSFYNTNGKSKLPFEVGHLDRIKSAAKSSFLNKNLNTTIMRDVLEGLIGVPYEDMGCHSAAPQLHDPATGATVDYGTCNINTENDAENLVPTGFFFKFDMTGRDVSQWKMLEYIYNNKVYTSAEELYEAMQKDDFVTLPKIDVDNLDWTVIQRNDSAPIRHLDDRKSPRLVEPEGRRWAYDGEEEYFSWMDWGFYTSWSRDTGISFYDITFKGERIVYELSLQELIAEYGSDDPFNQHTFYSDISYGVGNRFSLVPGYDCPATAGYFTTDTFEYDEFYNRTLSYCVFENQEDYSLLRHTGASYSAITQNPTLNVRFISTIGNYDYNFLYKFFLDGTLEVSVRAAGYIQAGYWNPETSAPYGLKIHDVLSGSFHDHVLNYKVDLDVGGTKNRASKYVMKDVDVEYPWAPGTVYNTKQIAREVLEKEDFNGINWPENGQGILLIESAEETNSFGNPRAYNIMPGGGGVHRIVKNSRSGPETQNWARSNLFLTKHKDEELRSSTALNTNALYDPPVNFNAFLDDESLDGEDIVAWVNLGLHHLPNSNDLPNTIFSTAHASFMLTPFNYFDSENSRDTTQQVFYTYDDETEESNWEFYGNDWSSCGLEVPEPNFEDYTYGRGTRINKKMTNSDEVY
# Test: Assays with various substrates: conversion in the presence of lysine oxidase (peroxidase/4-aminoantipyrine/phenol dye, absorption at 500 nm)
# Assay type: biochemical
# Details: substrate 18.75-1200 μmol/l in water, no reducing agent, L-lysine = 100
# Experimental: Measurement series in each case with a concentration of 1 200, 600, 300, 150, 75, 37.5 and 18.75 μmol of (di)amine per 1 l of water were carried out in a microtiter plate. 2 measurement series were carried out in each case; one with enzyme and one without enzyme as reference.
# 100 μl of each of the diluted solutions were taken. To this solution were added 25 μl of lysine oxidase and 40 μl of 35 millimolar phenol solution in 200 millimolar potassium phosphate/potassium diphosphate solution with a pH of 7.5, 40 μl of a 2 millimolar aqueous 4-aminoantipyrine solution and 40 μl of a solution of 0.35 mg of peroxidase (horseradish from Sigma) in 1 ml of water.
# In the reference measurement series, the 25 μl of lysine oxidase were replaced by 25 μl of water. A violet dye was formed by the […] produced on conversion of the substrates and its absorption in the UV at 500 nm was measured (T. Uwajima, O. Terada, Methods in Enzymology 1982, 89, 243 ff.).
row,SMILES,Relative conversion rate compared with L-lysine in % [%]
1,NCc1cccnc1 [3-Aminomethylpyridine],128
2,NCCCNCCCCNCCCN [Spermine],185
3,CCCCN [n-Butylamine],63
4,NCc1ccccc1 [Benzylamine],108
5,"NCCCCN [1,4-Diaminobutane]",133
6,"NCCCCCCCCN [1,8-Diaminooctane]",197
7,NCCN [Ethylenediamine],84
8,NCCCC[C@H](N)C(=O)O [L-Lysine],100
9,NCC(O)CCC(N)C(=O)O [D/L-5-Hydroxylysine],60
10,NCCO [Ethanolamine],50
11,"NCCCCCCN [1,6-Diaminohexane]",180
12,CC(=O)N[C@@H](CCCCN)C(=O)O [α-N-Acetyllysine],120
13,NCCCC[C@@H](N)C(=O)O [D-Lysine],100
14,NCCCC(N)C(=O)OC(F)F [D/L-Ornithine difluoromethyl ester],39
15,CCOC(=O)CN [Glycine ethyl ester],93
